We go through 16 compounds from patent US20240067632A1, “WEE1 Degrading Compounds and Uses Thereof” (Bristol-Myers Squibb Company, priority 2022, published 2024).

The target of assay [1] is T1, WEE1 (Homo sapiens, UniProt P30291+Q96SW2).
T1 construct: C-terminal ePL-tagged (DiscoverX, Fremont, CA) full-length WEE1 expression construct; expressed in transfected cells; host or cells: LentiX-HEK293T (Invitrogen), lentiviral transduction; co-expressing GSPT1-GN (G576N, lacking the first 158 amino acids)
Put plainly: WEE1-ePL degradation assay (LentiX-WEE1-ePL-GSPT1-ND cells, InCELL Hunter luminescence, 4 h). It is filed as cell-based. The conditions noted are these: 293T-LentiX WEE1-ePL cells; for DC50: read-out: 293T-LentiX WEE1-ePL Degradation 4 hr (EC50). The method in brief:
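LentiX-HEK293T cells stably expressing C-terminally ePL-tagged full-length WEE1 were treated with compounds in a 10-point, 3-fold dilution series starting at 1 uM or 10 uM for 4 h at 37 °C. Remaining WEE1-ePL was detected by InCELL Hunter luminescence, and EC50, Ymin and Ymax came from a four-parameter logistic fit against DMSO control.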

The test system of assay [2] is MKN45 cells. Put plainly: MKN45 cell proliferation assay (Cell-Titer-Glo, 120 h). The note with it: for EC50: Homo sapiens, MKN-45, 120 h, Cell-Titer-Glo, read-out: MKN45 Cell Prolif. 120 hr (EC50); for MKN45 Cell Prolif. 120 hr (Ymin-Obs): minimal percent of DMSO control observed in the concentrations tested. It is filed as cell-based. A digest of the protocol: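 Cells seeded at 400/well onto pre-printed 10-point half-log dilutions (top 1 or 10 uM, 0.1% DMSO final), in triplicate, and grown 120 h at 37 C. Viability by Cell-Titer-Glo luminescence, blank-subtracted and normalised to DMSO; EC50 from four-parameter logistic fit, with observed minimal % of control recorded as Ymin-obs.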

The mark [3] stands for this setting: lower limit of the fit (Ymin=0 luciferase inhibitor, Ymax DMSO control).
The mark [4] stands for this setting: lower limit of the fit (0 = luciferase inhibitor, Ymax = DMSO control).

Like-named read-outs stand apart in the source and are kept apart here.

In general, EC50 refers to the midpoint of the concentration-response curve.

As for `COC[C@H]1CCC[C@H](c2ccc3cc(CN4CC[C@H](Oc5ccc6c(c5)CN(C5CCC(=O)NC5=O)C6=O)C4)ccc3n2)C1` (stereo partly drawn) [3-(5-{[(3S)-1-({2-[(1S,3S)-3-(methoxymethyl)cyclohexyl]quinolin-6-yl}methyl)pyrrolidin-3-yl]oxy}-1-oxo-2,3-dihydro-1H-isoindol-2-yl)piperidine-2,6-dione], the “293T-LentiX WEE1-ePL Degradation 4 hr (Ymin)” value in assay [1] (setting [3]) is 32.49. The DC50 in assay [1] worked out at 7.61 nM. In assay [2], the EC50 was 5.71 nM and the “MKN45 Cell Prolif. 120 hr (Ymin-Obs)” value is 11.34.
Regarding `COC[C@H]1CC[C@H](c2ccc3cc(CN4CC[C@H](Oc5ccc6c(c5)CN(C5CCC(=O)NC5=O)C6=O)C4)ccc3n2)C1` (stereo partly drawn) [3-(5-{[(3S)-1-({2-[(1S,3S)-3-(methoxymethyl)cyclopentyl]quinolin-6-yl}methyl)pyrrolidin-3-yl]oxy}-1-oxo-2,3-dihydro-1H-isoindol-2-yl)piperidine-2,6-dione], in assay [1] (setting [3]), the “293T-LentiX WEE1-ePL Degradation 4 hr (Ymin)” value was 33.9. Further, the DC50 in assay [1] was 6.8 nM. In assay [2], the EC50 amounted to 2.52 nM and the “MKN45 Cell Prolif. 120 hr (Ymin-Obs)” value was determined as 8.033.
`O=C1CCC(N2Cc3cc(O[C@H]4CCN(Cc5ccc6nc([C@H]7CC[C@H](O)C7)ccc6c5)C4)ccc3C2=O)C(=O)N1` (stereo partly drawn) [3-(5-{[(3S)-1-({2-[(1S,3S)-3-hydroxycyclopentyl]quinolin-6-yl}methyl)pyrrolidin-3-yl]oxy}-1-oxo-2,3-dihydro-1H-isoindol-2-yl)piperidine-2,6-dione]: the “293T-LentiX WEE1-ePL Degradation 4 hr (Ymin)” value in assay [1] (setting [4]) was found to be 27.5. In addition, the DC50 in assay [1] worked out at 2.67 nM. Further, in assay [2] (growth inhibition), the EC50 was determined as 3.24 nM. For the same compound, the “MKN45 Cell Prolif. 120 hr (Ymin-Obs)” value in assay [2] is 8.695.
On to `CO[C@H]1CCC[C@H](c2ccc3cc(CN4CC[C@H](Oc5ccc6c(c5)CN(C5CCC(=O)NC5=O)C6=O)C4)ccc3n2)C1` (stereo partly drawn) [3-(5-{[(3S)-1-({2-[(1S,3S)-3-methoxycyclohexyl]quinolin-6-yl}methyl)pyrrolidin-3-yl]oxy}-1-oxo-2,3-dihydro-1H-isoindol-2-yl)piperidine-2,6-dione], for which the “293T-LentiX WEE1-ePL Degradation 4 hr (Ymin)” value in assay [1] (setting [4]) is given as 30.5. Also, the DC50 in assay [1] came to 3.58 nM. The EC50 in assay [2] (growth inhibition) was 2.01 nM. The “MKN45 Cell Prolif. 120 hr (Ymin-Obs)” value in assay [2] came out at 9.255.
Take `CO[C@H]1CC[C@H](c2ccc3cc(CN4CC[C@H](Oc5ccc6c(c5)CN(C5CCC(=O)NC5=O)C6=O)C4)ccc3n2)C1` (stereo partly drawn) [3-(5-{[(3S)-1-({2-[(1S,3S)-3-methoxycyclopentyl]quinolin-6-yl}methyl)pyrrolidin-3-yl]oxy}-1-oxo-2,3-dihydro-1H-isoindol-2-yl)piperidine-2,6-dione]: the “293T-LentiX WEE1-ePL Degradation 4 hr (Ymin)” value in assay [1] (setting [4]) came out at 32.5. Further, the DC50 in assay [1] amounted to 6.19 nM. In addition, the EC50 in assay [2] (growth inhibition) is 4.8 nM. Moreover, the “MKN45 Cell Prolif. 120 hr (Ymin-Obs)” value in assay [2] was 8.927.
For the compound `O=C1CCC(N2Cc3cc(O[C@H]4CCN(Cc5ccc6nc(N7C[C@@H]8C[C@H]7CO8)ncc6c5)C4)ccc3C2=O)C(=O)N1` (stereo partly drawn) [3-(5-{[(3S)-1-({2-[(1S,4S)-2-oxa-5-azabicyclo[2.2.1]heptan-5-yl]quinazolin-6-yl}methyl)pyrrolidin-3-yl]oxy}-1-oxo-2,3-dihydro-1H-isoindol-2-yl)piperidine-2,6-dione], the “293T-LentiX WEE1-ePL Degradation 4 hr (Ymin)” value in assay [1] (setting [4]) came to 34.5. Moreover, the DC50 in assay [1] is 12.3 nM. In addition, the EC50 in assay [2] (growth inhibition) turned out to be 9.86 nM. Also, the “MKN45 Cell Prolif. 120 hr (Ymin-Obs)” value in assay [2] was 9.576.
For the compound `O=C1CCC(N2Cc3cc(O[C@H]4CCN(Cc5ccc6nc(N7C[C@@H]8C[C@H]7CO8)ccc6c5)C4)ccc3C2=O)C(=O)N1` (stereo partly drawn) [3-(5-{[(3S)-1-({2-[(1S,4S)-2-oxa-5-azabicyclo[2.2.1]heptan-5-yl]quinolin-6-yl}methyl)pyrrolidin-3-yl]oxy}-1-oxo-2,3-dihydro-1H-isoindol-2-yl)piperidine-2,6-dione], the “293T-LentiX WEE1-ePL Degradation 4 hr (Ymin)” value in assay [1] (setting [4]) came out at 34. In assay [1], the DC50 is 2.98 nM. The EC50 in assay [2] (growth inhibition) was 5.54 nM. Also, the “MKN45 Cell Prolif. 120 hr (Ymin-Obs)” value in assay [2] worked out at 8.09.
Consider `C[C@@H]1CC(c2ccc3cc(CN4CC[C@H](Oc5ccc6c(c5)CN(C5CCC(=O)NC5=O)C6=O)C4)ccc3n2)CCO1` (stereo partly drawn) [3-(5-{[(3S)-1-({2-[(2R)-2-methyloxan-4-yl]quinolin-6-yl}methyl)pyrrolidin-3-yl]oxy}-1-oxo-2,3-dihydro-1H-isoindol-2-yl)piperidine-2,6-dione], for which, in assay [1] (setting [4]), the “293T-LentiX WEE1-ePL Degradation 4 hr (Ymin)” value worked out at 29.54. Also, the DC50 in assay [1] was 10.5 nM. Moreover, in assay [2] (growth inhibition), the EC50 was found to be 10.9 nM. In addition, in assay [2], the “MKN45 Cell Prolif. 120 hr (Ymin-Obs)” value came to 14.5.
Regarding `C[C@@H]1CC(c2ccc3cc(CN4CC[C@H](Oc5ccc6c(c5)CN(C5CCC(=O)NC5=O)C6=O)C4)ccc3n2)C[C@@H](C)O1` (stereo partly drawn) [3-(5-{[(3S)-1-({2-[(2R,6R)-2,6-dimethyloxan-4-yl]quinolin-6-yl}methyl)pyrrolidin-3-yl]oxy}-1-oxo-2,3-dihydro-1H-isoindol-2-yl)piperidine-2,6-dione], the “293T-LentiX WEE1-ePL Degradation 4 hr (Ymin)” value in assay [1] (setting [3]) was 25.33. Moreover, the DC50 in assay [1] is 5.2 nM. Further, in assay [2], the concentration giving a half-maximal response (EC50) stood at 5.09 nM and the “MKN45 Cell Prolif. 120 hr (Ymin-Obs)” value worked out at 10.09.
Regarding `C[C@@H]1CC(c2ccc3cc(CN4CC[C@H](Oc5ccc6c(c5)CN(C5CCC(=O)NC5=O)C6=O)C4)ccc3n2)C[C@H](C)O1` (stereo partly drawn) [3-(5-{[(3S)-1-({2-[(2R,6S)-2,6-dimethyloxan-4-yl]quinolin-6-yl}methyl)pyrrolidin-3-yl]oxy}-1-oxo-2,3-dihydro-1H-isoindol-2-yl)piperidine-2,6-dione], in assay [1] (setting [4]), the “293T-LentiX WEE1-ePL Degradation 4 hr (Ymin)” value was 30.42. Moreover, in assay [1], the DC50 is 11.7 nM. Further, the EC50 in assay [2] (growth inhibition) was 10.4 nM. The “MKN45 Cell Prolif. 120 hr (Ymin-Obs)” value in assay [2] worked out at 14.48.
Regarding `C[C@H]1CC(c2ccc3cc(CN4CC[C@H](Oc5ccc6c(c5)CN(C5CCC(=O)NC5=O)C6=O)C4)ccc3n2)CCO1` (stereo partly drawn) [3-(5-{[(3S)-1-({2-[(2S)-2-methyloxan-4-yl]quinolin-6-yl}methyl)pyrrolidin-3-yl]oxy}-1-oxo-2,3-dihydro-1H-isoindol-2-yl)piperidine-2,6-dione], in assay [1] (setting [4]), the “293T-LentiX WEE1-ePL Degradation 4 hr (Ymin)” value stood at 28.55. Moreover, in assay [1], the DC50 is 2.97 nM. In addition, in assay [2] (growth inhibition), the EC50 was 4.39 nM. The “MKN45 Cell Prolif. 120 hr (Ymin-Obs)” value in assay [2] was 10.88.
For the compound `CN1CC[C@@H](c2ncc3cc(CN4CC[C@H](Oc5ccc6c(c5)CN(C5CCC(=O)NC5=O)C6=O)C4)ccc3n2)C1` (stereo partly drawn) [3-(5-{[(3S)-1-({2-[(3R)-1-methylpyrrolidin-3-yl]quinazolin-6-yl}methyl)pyrrolidin-3-yl]oxy}-1-oxo-2,3-dihydro-1H-isoindol-2-yl)piperidine-2,6-dione], the “293T-LentiX WEE1-ePL Degradation 4 hr (Ymin)” value in assay [1] (setting [3]) worked out at 37.05. For the same compound, the DC50 in assay [1] is 225 nM. In addition, in assay [2], the EC50 is 48.4 nM and the “MKN45 Cell Prolif. 120 hr (Ymin-Obs)” value is 13.19.
As to `CN1CC[C@@H](c2ccc3cc(CN4CC[C@H](Oc5ccc6c(c5)CN(C5CCC(=O)NC5=O)C6=O)C4)ccc3n2)C1` (stereo partly drawn) [3-(5-{[(3S)-1-({2-[(3R)-1-methylpyrrolidin-3-yl]quinolin-6-yl}methyl)pyrrolidin-3-yl]oxy}-1-oxo-2,3-dihydro-1H-isoindol-2-yl)piperidine-2,6-dione], the “293T-LentiX WEE1-ePL Degradation 4 hr (Ymin)” value in assay [1] (setting [4]) was determined as 37. Moreover, the DC50 in assay [1] amounted to 67.4 nM. Also, the EC50 in assay [2] (growth inhibition) came to 90.5 nM. Further, the “MKN45 Cell Prolif. 120 hr (Ymin-Obs)” value in assay [2] is reported as 11.69.
For the compound `O=C1CCC(N2Cc3cc(O[C@H]4CCN(Cc5ccc6nc(N7CC[C@@H](O)C7)ccc6c5)C4)ccc3C2=O)C(=O)N1` (stereo partly drawn) [3-(5-{[(3S)-1-({2-[(3R)-3-hydroxypyrrolidin-1-yl]quinolin-6-yl}methyl)pyrrolidin-3-yl]oxy}-1-oxo-2,3-dihydro-1H-isoindol-2-yl)piperidine-2,6-dione], the “293T-LentiX WEE1-ePL Degradation 4 hr (Ymin)” value in assay [1] (setting [4]) was 36. Further, in assay [1], the DC50 is 17.5 nM. For the same compound, the concentration for a half-maximal effect (EC50) in assay [2] (growth inhibition) stood at 20.9 nM. Further, in assay [2], the “MKN45 Cell Prolif. 120 hr (Ymin-Obs)” value is recorded as 11.85.
As to `CO[C@@H]1CCCN(c2ccc3cc(CN4CC[C@H](Oc5ccc6c(c5)CN(C5CCC(=O)NC5=O)C6=O)C4)ccc3n2)C1` (stereo partly drawn) [3-(5-{[(3S)-1-({2-[(3R)-3-methoxypiperidin-1-yl]quinolin-6-yl}methyl)pyrrolidin-3-yl]oxy}-1-oxo-2,3-dihydro-1H-isoindol-2-yl)piperidine-2,6-dione], the “293T-LentiX WEE1-ePL Degradation 4 hr (Ymin)” value in assay [1] (setting [4]) was 34. In assay [1], the DC50 is 4.32 nM. Besides, in assay [2] (growth inhibition), the EC50 turned out to be 3.91 nM. For the same compound, the “MKN45 Cell Prolif. 120 hr (Ymin-Obs)” value in assay [2] is on record as 6.79.
On the same counts, the results for `CO[C@@H]1CCN(c2ccc3cc(CN4CC[C@H](Oc5ccc6c(c5)CN(C5CCC(=O)NC5=O)C6=O)C4)ccc3n2)C1` (stereo partly drawn) [3-(5-{[(3S)-1-({2-[(3R)-3-methoxypyrrolidin-1-yl]quinolin-6-yl}methyl)pyrrolidin-3-yl]oxy}-1-oxo-2,3-dihydro-1H-isoindol-2-yl)piperidine-2,6-dione] are 37, 2.46 nM, 3.67 nM and 8.99.
